From US12421224B2 (BIOGEN MA INC., priority 2019, dated 2025)

Biological target: T1, Recombinant full length human OGA enzyme (Homo sapiens, UniProt O60502)
T1 construct: Recombinant full length human OGA enzyme; purchased Origene
T1 sequence (O60502 1-916): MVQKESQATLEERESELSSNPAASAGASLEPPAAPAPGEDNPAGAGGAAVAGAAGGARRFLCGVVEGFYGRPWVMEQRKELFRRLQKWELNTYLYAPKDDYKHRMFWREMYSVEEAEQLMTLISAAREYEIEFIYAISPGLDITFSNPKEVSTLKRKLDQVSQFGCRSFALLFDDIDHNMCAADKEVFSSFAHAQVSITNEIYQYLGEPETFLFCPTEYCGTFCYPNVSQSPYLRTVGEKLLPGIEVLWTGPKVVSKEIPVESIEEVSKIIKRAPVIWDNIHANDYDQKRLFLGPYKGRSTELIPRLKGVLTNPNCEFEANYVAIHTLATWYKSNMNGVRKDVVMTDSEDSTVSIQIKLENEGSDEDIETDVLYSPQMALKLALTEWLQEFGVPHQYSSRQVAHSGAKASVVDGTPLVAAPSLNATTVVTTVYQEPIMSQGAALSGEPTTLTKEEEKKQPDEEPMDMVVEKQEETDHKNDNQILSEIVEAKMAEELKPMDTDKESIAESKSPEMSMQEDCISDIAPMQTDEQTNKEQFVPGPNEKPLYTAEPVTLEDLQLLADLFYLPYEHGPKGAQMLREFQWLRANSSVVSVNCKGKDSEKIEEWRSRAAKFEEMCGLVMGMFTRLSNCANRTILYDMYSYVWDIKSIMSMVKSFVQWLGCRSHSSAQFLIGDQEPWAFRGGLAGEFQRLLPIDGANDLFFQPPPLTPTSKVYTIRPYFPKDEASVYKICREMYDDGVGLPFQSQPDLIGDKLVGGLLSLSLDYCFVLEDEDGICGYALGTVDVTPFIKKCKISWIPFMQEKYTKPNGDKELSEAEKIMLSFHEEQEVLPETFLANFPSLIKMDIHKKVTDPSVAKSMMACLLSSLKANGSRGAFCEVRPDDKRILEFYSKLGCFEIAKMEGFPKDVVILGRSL
Assay: OGA Enzyme Inhibition Biochemical Assay
Conditions: 1 nM OGA, 100 μM 4-MUGlcNAc (Km), pH 6.4, 90 minutes at room temperature, 10-point dose-response starting from 20 μM
Experimental: OGA Enzyme Inhibition Biochemical Assay
Recombinant full length human OGA enzyme was purchased from Origene. 4-MUGlCNAc substrate was purchased from Sigma. All other reagents were purchased from Sigma or Fisher. Assay buffer consists of the Mcllvaine buffer system, pH 6.4 (0.2M Na2HPO4 mixed with 0.1M citric acid) and 0.01% BSA. Reactions consist of 1 nM OGA, 100 μM 4-MUGlcNAc (Km), and compound in a final volume of 10 μl. Reactions were incubated for 90 minutes at room temperature and quenched with […] of 3M glycine, pH 10 and read on a Perkin Elmer Envision plate reader (Ex: 355 nm/Em: 460 nm). Compounds were tested with a 10-point dose-response starting from 20 μM with a 4-fold dilution. Data was fit using GraphPad Prism using a 4-parameter fit with variable slope.

For `COc1cc(O[C@@H]2CN(Cc3cnc(NC(C)=O)s3)[C@@H]2C)ncn1` (single isomer, unassigned) [Example 2-10], the IC50 was 600 nM.

Work on `COc1cc(COC2CN(Cc3cnc(NC(C)=O)s3)C2)ccn1` [Example 1-1, N-(5-((3-((2-methoxypyridin-4-yl)methoxy)azetidin-1-yl)methyl)thiazol-2-yl)acetamide] yielded an IC50 of 91 nM.

`CC(=O)Nc1ncc(CN2CC(OCc3cc(C)nc(C)c3)C2)s1` [Example 1-2, N-(5-((3-((2,6-dimethylpyridin-4-yl)methoxy)azetidin-1-yl)methyl)thiazol-2-yl)acetamide] was tested, and the IC50 was 480 nM.

For `CC(=O)Nc1ncc(CN2CC(OCc3noc(C)n3)C2)s1` [Example 1-3, N-(5-((3-((5-methyl-1,2,4-oxadiazol-3-yl)methoxy)azetidin-1-yl)methyl)thiazol-2-yl)acetamide], the IC50 was 220 nM.

`COc1cc(OC2CN(Cc3cnc(NC(C)=O)s3)C2)ncn1` [Example 2-1, N-(5-((3-((6-methoxypyrimidin-4-yl)oxy)azetidin-1-yl)methyl)thiazol-2-yl)acetamide] gave an IC50 of 407 nM.

With `CC(=O)Nc1ncc(CN2CC(Oc3ncc(F)cn3)C2)s1` [Example 2-2] the IC50 was 530 nM.

`COc1cc(OC2CN(Cc3cnc(NC(C)=O)s3)C2)ccn1` [Example 2-3, N-(5-((3-((2-methoxypyridin-4-yl)oxy)azetidin-1-yl)methyl)thiazol-2-yl)acetamide] gave an IC50 of 160 nM.

Molecule `CC(=O)Nc1ncc(CN2CC(Oc3ncccc3C)C2)s1` [Example 2-4, N-(5-((3-((3-methylpyridin-2-yl)oxy)azetidin-1-yl)methyl)thiazol-2-yl)acetamide] has an IC50 greater than 20 nM.

With `CC(=O)Nc1ncc(CN2CC(Oc3ccc(C#N)cn3)C2)s1` [Example 2-5, N-(5-((3-((5-cyanopyridin-2-yl)oxy)azetidin-1-yl)methyl)thiazol-2-yl)acetamide] the IC50 was 340 nM.

With `COc1cc(O[C@@H]2CN(Cc3cnc(NC(C)=O)s3)[C@@H]2C)ccn1` [Example 2-6, N-(5-(((2R,3R)-3-((2-methoxypyridin-4-yl)oxy)-2-methylazetidin-1-yl)methyl)thiazol-2-yl)acetamide] the IC50 was 170 nM.

Molecule `COc1cc(O[C@H]2CN(Cc3cnc(NC(C)=O)s3)[C@@H]2C)ccn1` [Example 2-7, N-(5-(((2R,3S)-3-((2-methoxypyridin-4-yl)oxy)-2-methylazetidin-1-yl)methyl)thiazol-2-yl)acetamide] has an IC50 of 210 nM.

`CC(=O)Nc1ncc(CN2C[C@@H](Oc3ccc(F)cn3)[C@H]2C)s1` [Example 2-8, N-(5-(((2R,3R)-3-((5-fluoropyridin-2-yl)oxy)-2-methylazetidin-1-yl)methyl)thiazol-2-yl)acetamide] was tested, and the IC50 was 450 nM.

`CC(=O)Nc1ncc(CN2C[C@H](Oc3ccc(F)cn3)[C@H]2C)s1` [Example 2-9, N-(5-(((2R,3S)-3-((5-fluoropyridin-2-yl)oxy)-2-methylazetidin-1-yl)methyl)thiazol-2-yl)acetamide] showed an IC50 of 170 nM.

For `COc1cc(NC2CN(Cc3cnc(NC(C)=O)s3)C2)ncn1` [Example 2-11], the IC50 was 407 nM.

For `COc1cc(NC2CN(Cc3cnc(NC(C)=O)s3)C2)ccn1` [Example 2-12, N-(5-((3-((2-methoxypyridin-4-yl)amino)azetidin-1-yl)methyl)thiazol-2-yl)acetamide], the IC50 was 33 nM.

Work on `CC(=O)Nc1ncc(CN2CC(Nc3ccc(C#N)cn3)C2)s1` [Example 2-13, N-(5-((3-((5-cyanopyridin-2-yl)amino)azetidin-1-yl)methyl)thiazol-2-yl)acetamide] yielded an IC50 of 59 nM.

For `CC(=O)Nc1ncc(CN2CC(Nc3ccc(F)cn3)C2)s1` [Example 2-14, N-(5-((3-((5-fluoropyridin-2-yl)amino)azetidin-1-yl)methyl)thiazol-2-yl)acetamide], the IC50 was 130 nM.

With `CC(=O)Nc1ncc(CN2C[C@@H](Nc3ccc(F)cn3)[C@H]2C)s1` [Example 2-15, N-(5-(((2R,3R)-3-((5-fluoropyridin-2-yl)amino)-2-methylazetidin-1-yl)methyl)thiazol-2-yl)acetamide] the IC50 was 800 nM.

In the case of `COc1cc(N[C@@H]2CN(Cc3cnc(NC(C)=O)s3)[C@@H]2C)ccn1` [Example 2-16, N-(5-(((2R,3R)-3-((2-methoxypyridin-4-yl)amino)-2-methylazetidin-1-yl)methyl)thiazol-2-yl)acetamide], the IC50 is reported as 570 nM.

`COc1cc(N[C@H]2CN(Cc3cnc(NC(C)=O)s3)[C@@H]2C)ccn1` [Example 2-17, N-(5-(((2R,3S)-3-((2-methoxypyridin-4-yl)amino)-2-methylazetidin-1-yl)methyl)thiazol-2-yl)acetamide] gave an IC50 of 11 nM.

`CC(=O)Nc1ncc(CN2C[C@@H](Nc3ccc(C#N)cn3)[C@H]2C)s1` [Example 2-18, N-(5-(((2R,3R)-3-((5-cyanopyridin-2-yl)amino)-2-methylazetidin-1-yl)methyl)thiazol-2-yl)acetamide] was tested, and the IC50 was 570 nM.

`CC(=O)Nc1ncc(CN2C[C@H](Nc3ccc(C#N)cn3)[C@H]2C)s1` [Example 2-19, N-(5-(((2R,3S)-3-((5-cyanopyridin-2-yl)amino)-2-methylazetidin-1-yl)methyl)thiazol-2-yl)acetamide] showed an IC50 of 25 nM.

In the case of `CC(=O)Nc1ncc(CN2CC(COc3cc(C)nc(C)c3)C2)s1` [Example 2-20, N-(5-((3-(((2,6-dimethylpyridin-4-yl)oxy)methyl)azetidin-1-yl)methyl)thiazol-2-yl)acetamide], the IC50 is reported as 480 nM.

`CC(=O)Nc1ncc(CN2CC(COc3cc(C)nc(C)n3)C2)s1` [Example 2-21, N-(5-((3-(((2,6-dimethylpyrimidin-4-yl)oxy)methyl)azetidin-1-yl)methyl)thiazol-2-yl)acetamide] gave an IC50 of 1300 nM.

For `CC(=O)Nc1ncc(CN2CC(COc3ccc(F)cn3)C2)s1` [Example 2-22, N-(5-((3-(((5-fluoropyridin-2-yl)oxy)methyl)azetidin-1-yl)methyl)thiazol-2-yl)acetamide], the IC50 was 1500 nM.

Molecule `COc1cc(OCC2CN(Cc3cnc(NC(C)=O)s3)C2)ccn1` [Example 2-23, N-(5-((3-(((2-methoxypyridin-4-yl)oxy)methyl)azetidin-1-yl)methyl)thiazol-2-yl)acetamide] has an IC50 of 670 nM.

In the case of `CC(=O)Nc1ncc(CN2CC(CNc3cc(C)nc(C)c3)C2)s1` [Example 2-24, N-(5-((3-(((2,6-dimethylpyridin-4-yl)amino)methyl)azetidin-1-yl)methyl)thiazol-2-yl)acetamide], the IC50 is reported as 1400 nM.

With `COc1cc(NCC2CN(Cc3cnc(NC(C)=O)s3)C2)ccn1` [Example 2-25, N-(5-((3-(((2-methoxypyridin-4-yl)amino)methyl)azetidin-1-yl)methyl)thiazol-2-yl)acetamide] the IC50 was 610 nM.

In the case of `CC(=O)Nc1ncc(CN2CC(CNc3cc(C)nc(C)n3)C2)s1` [Example 2-26, N-(5-((3-(((2,6-dimethylpyrimidin-4-yl)amino)methyl)azetidin-1-yl)methyl)thiazol-2-yl)acetamide], the IC50 is reported as 1300 nM.

`COc1cc(O[C@H]2CN(Cc3cnc(NC(C)=O)s3)[C@@H]2C)ncn1` [Example 2-27, N-(5-(((2R,3S)-3-((6-methoxypyrimidin-4-yl)oxy)-2-methylazetidin-1-yl)methyl)thiazol-2-yl)acetamide] gave an IC50 of 600 nM.

For `COc1cc(O[C@@H]2CN(Cc3cnc(NC(C)=O)s3)[C@@H]2C)ncn1` [Example 2-28, N-(5-(((2R,3R)-3-((6-methoxypyrimidin-4-yl)oxy)-2-methylazetidin-1-yl)methyl)thiazol-2-yl)acetamide], the IC50 was 110 nM.

`CC(=O)Nc1ncc(CN2C[C@@H](Oc3ncc(F)cn3)[C@H]2C)s1` [Example 2-29, N-(5-(((2R,3R)-3-((5-fluoropyrimidin-2-yl)oxy)-2-methylazetidin-1-yl)methyl)thiazol-2-yl)acetamide] was tested, and the IC50 was 570 nM.

`CC(=O)Nc1ncc(CN2C[C@H](Oc3ncc(F)cn3)[C@H]2C)s1` [Example 2-30, N-(5-(((2R,3S)-3-((5-fluoropyrimidin-2-yl)oxy)-2-methylazetidin-1-yl)methyl)thiazol-2-yl)acetamide] was tested, and the IC50 was 170 nM.

Molecule `CC(=O)Nc1ncc(CN2C[C@@H](Oc3ccc(C#N)cn3)[C@H]2C)s1` [Example 2-31, N-(5-(((2R,3R)-3-((5-cyanopyridin-2-yl)oxy)-2-methylazetidin-1-yl)methyl)thiazol-2-yl)acetamide] has an IC50 of 440 nM.
